Data reported in publication PMC10892935 (Viruses, 2024).
Values after ≈ are worked out from the molar mass of the structure shown. Read-outs that look alike come from different tables or passages of the source.

Legend:
FHV-1 [1] = assay: Plaque reduction assay; type: cell-based, feline herpesvirus-1 (FHV-1); settings: CRFK cells
gB = type: binding, feline herpesvirus-1 (FHV-1)
FHV-1 [2] = assay: Cytopathic effect (CPE) inhibition assay; settings: for EC50: Felid alphaherpesvirus 1, CRFK, 48 h; for Anti-FHV-1: in vitro anti-FHV-1 effect in CRFK cells, √ / × (key not given)
FHV-1 gB = FHV-1 gB (Feline herpesvirus 1, UniProt Q86665); assay: biochemical; type: binding, feline herpesvirus-1 (FHV-1); settings: for Binding and dissociation kinetics in words: BLI, gB; for koff: read-out: Kdis (rate of dissociation); for kon: read-out: Kon (rate of association)
FHV-1 [3] = assay: Time of drug addition assay with qPCR of viral nucleic acid copies; type: cell-based, feline herpesvirus-1 (FHV-1); settings: for Inhibition of FHV-1 entry into host cells (virus entry assay): 4 °C pre-incubation then 37 °C, Saikosaponin B2 50 μg/mL; for FHV-1 nucleic acid copy numbers after drug pretreatment of cells: CRFK cells pretreated before infection, qPCR
in vitro = settings: cat
FHV-1 [4] = assay: Fusion and entry assays with DIOC- and R18-labelled virus (confocal microscopy); type: cell-based, feline herpesvirus-1 (FHV-1); settings: 10 MOI, CRFK cells; for Adsorption of DIOC-labelled FHV-1: 4 °C 2 h
FHV-1 [5] = tested on: FHV-1; set-up: method as in earlier work; settings: reported for CRFK cells; cited from earlier work
CRFK cells = settings: 48 h, CCK-8

Row | Molecule | Anti-FHV-1 (FHV-1 [2]) | Kd (FHV-1 gB) [µM] | koff (FHV-1 gB) [s⁻¹] | kon (FHV-1 gB) [M⁻¹ s⁻¹] | CC50 at 48 h (in vitro) [µg/mL] | other results
1 | O=C1O[C@H]2[C@@H]3OC(=O)c4cc(O)c(O)c(O)c4-c4c(O)c(O)c5oc(=O)c6c(c(O)c(O)c7oc(=O)c4c5c76)-c4c(cc(O)c(O)c4O)C(=O)OC[C@H]3OC(O)[C@@H]2OC(=O)c2cc(O)c(O)c(O)c2-c2c1cc(O)c(O)c2O (mixture of isomers) [Punicalagin] | √ | < 1e-06 | < 1e-07 | 8740 | 3.32 ± 0.28 | Inhibition of FHV-1-induced cytopathic effects and plaque formation (FHV-1 [1]): effective inhibitors; Thermal stability (Tm) of gB (gB): altered the thermal stability of gB; EC50 (FHV-1 [2]): 2.19 µg/mL; Binding and dissociation kinetics in words (FHV-1 gB): rapid binding with no dissociation; Inhibition of FHV-1 entry into host cells (virus entry assay) (FHV-1 [3]): reduced effectiveness in inhibiting virus infection; FHV-1 nucleic acid copy numbers after drug pretreatment of cells (FHV-1 [3]): negligible changes; Adsorption of DIOC-labelled FHV-1 (FHV-1 [4]): inhibit the adsorption of FHV-1
2 | O=C1OC[C@H]2OC(O)[C@H](O)[C@@H](O)[C@@H]2OC(=O)c2cc(O)c(O)c(O)c2-c2c(O)c(O)c3oc(=O)c4c(c(O)c(O)c5oc(=O)c2c3c54)-c2c1cc(O)c(O)c2O (mixture of isomers) [Punicalin] | √ | < 1e-06 | < 1e-07 | 12500 |  | Inhibition of FHV-1-induced cytopathic effects and plaque formation (FHV-1 [1]): effective inhibitors; Thermal stability (Tm) of gB (gB): altered the thermal stability of gB; EC50 (FHV-1 [2]): 0.22 µg/mL; Binding and dissociation kinetics in words (FHV-1 gB): rapid binding with no dissociation; Inhibition of FHV-1 entry into host cells (virus entry assay) (FHV-1 [3]): reduced effectiveness in inhibiting virus infection; FHV-1 nucleic acid copy numbers after drug pretreatment of cells (FHV-1 [3]): negligible changes; CC50 at 48 h (in vitro; CRFK cells): 7.65 ± 0.68 µg/mL; Adsorption of DIOC-labelled FHV-1 (FHV-1 [4]): inhibit the adsorption of FHV-1
3 | O=C(C=Cc1ccc(O)c(O)c1)OC1CC(O)(C(=O)O)CC(O)C1OC(=O)C=Cc1ccc(O)c(O)c1 (centres unmarked) [4,5-Dicaffeoylquinic acid] | × | 7.96 | 0.0652 | 8180 |  | CC50 at 48 h (in vitro; CRFK cells): 54.5 ± 2.89 µg/mL (≈ 106 µM)
4 | Nc1nc2c(ncn2COCCO)c(=O)[nH]1 [Acyclovir] |  |  |  |  |  | EC50 (FHV-1 [5]): 13.04 µg/mL (≈ 57.9 µM)
5 | C=CCS[S+]([O-])CC=C (centres unmarked) [Allicin] | × | 3530 | 0.00299 | 0.846 | 84.9 ± 0.87 (≈ 523 µM) | 
6 | O=C(O)[C@H]1O[C@@H](Oc2cc3oc(-c4ccccc4)cc(=O)c3c(O)c2O)[C@H](O)[C@@H](O)[C@@H]1O [Baicalin] | × | 41.6 | 0.922 | 1090 | 65.8 ± 2.12 (≈ 147 µM) | 
7 | Nc1ccn(C[C@@H](CO)OCP(=O)(O)O)c(=O)n1 [Cidofovir] |  |  |  |  |  | EC50 (FHV-1 [5]): 3.07 µg/mL (≈ 11 µM)
8 | O=C(/C=C/c1ccc(O)c(O)c1)O[C@@H]1C[C@@](OC(=O)/C=C/c2ccc(O)c(O)c2)(C(=O)O)C[C@@H](O)[C@@H]1O [Cynarine] | × | 8.41 | 0.00596 | 709 |  | CC50 at 48 h (in vitro; CRFK cells): 60.1 ± 1.86 µg/mL (≈ 116 µM)
9 | O=C1c2c(O)cc(O)cc2O[C@H](c2cc(O)c(O)c(O)c2)[C@H]1O [Dihydromyricetin] | × | 36.1 | 0.00506 | 140 | 3.22 ± 0.43 (≈ 10.1 µM) | 
10 | COc1ccc(-c2cc(=O)c3c(O)cc(O[C@@H]4O[C@H](CO[C@@H]5O[C@@H](C)[C@H](O)[C@@H](O)[C@H]5O)[C@@H](O)[C@H](O)[C@H]4O)cc3o2)cc1O [Diosmin] | × | 90.8 | 0.034 | 374 | 449.75 ± 0.21 (≈ 739 µM) | 
11 | O=C(O)P(=O)(O)O [Foscarnet] |  |  |  |  |  | EC50 (FHV-1 [5]): 44.71 µg/mL (≈ 355 µM)
12 | Nc1nc(O)c2ncn(COC(CO)CO)c2n1 [Ganciclovir] |  |  |  |  |  | EC50 (FHV-1 [5]): 1.33 µg/mL (≈ 5.21 µM)
13 | O=c1c(O[C@@H]2O[C@H](CO)[C@H](O)[C@H](O)[C@H]2O)c(-c2ccc(O)c(O)c2)oc2cc(O)cc(O)c12 [Hyperoside] | × | 23.9 | 0.00683 | 286 | > 50 | 
14 | O=c1[nH]c(=O)n([C@H]2C[C@H](O)[C@@H](CO)O2)cc1I [Idoxuridine] |  |  |  |  |  | EC50 (FHV-1 [5]): 1.52 µg/mL (≈ 4.29 µM)
15 | O=c1c(O[C@@H]2O[C@H](CO)[C@@H](O)[C@H](O)[C@H]2O)c(-c2ccc(O)c(O)c2)oc2cc(O)cc(O)c12 [Isoquercetin] | × | 73.3 | 0.0179 | 245 | 289 ± 5.69 (≈ 623 µM) | 
16 | Nc1nc2c(ncn2CCC(CO)CO)c(=O)[nH]1 [Penciclovir] |  |  |  |  |  | EC50 (FHV-1 [5]): 3.50 µg/mL (≈ 13.8 µM)
17 | CC1OC(OC2CCC3(C)C(CCC4(C)C3C=CC3=C5CC(C)(C)CCC5(CO)C(O)CC34C)C2(C)CO)C(O)C(OC2OC(CO)C(O)C(O)C2O)C1O (centres unmarked) [Saikosaponin B2] | √ |  |  |  |  | Inhibition of FHV-1-induced cytopathic effects and plaque formation (FHV-1 [1]): effective inhibitors; Thermal stability (Tm) of gB (gB): altered the thermal stability of gB; EC50 (FHV-1 [2]): 13.5 µg/mL (≈ 17.3 µM); Binding and dissociation kinetics in words (FHV-1 gB): rapid binding and dissociation; Inhibition of FHV-1 entry into host cells (virus entry assay) (FHV-1 [3]): exhibited inhibitory effects; FHV-1 nucleic acid copy numbers after drug pretreatment of cells (FHV-1 [3]): negligible changes; Viral nucleic acid expression with drug treatment after infection (FHV-1 [3]; drug applied to CRFK cells infected with FHV-1, qPCR): remarkably significant difference; CC50 at 48 h (in vitro; CRFK cells): 197.5 ± 0.52 µg/mL (≈ 253 µM); Adsorption of DIOC-labelled FHV-1 (FHV-1 [4]): inhibit the adsorption of FHV-1; Entry of R18-labelled FHV-1 (FHV-1 [4]; 4 °C 2 h then 37 °C 2 h): inhibited the entry of FHV-1
18 | O=C(O)[C@H]1O[C@@H](Oc2cc3oc(-c4ccc(O)cc4)cc(=O)c3c(O)c2O)[C@H](O)[C@@H](O)[C@@H]1O [Scutellarin] | × | 0.647 | 0.00875 | 13500 | 185 ± 3.37 (≈ 401 µM) | 
19 | O=C(O)c1cc(O)c2c(c1)[C@H]([C@H]1c3cc(C(=O)O)cc(O)c3C(=O)c3c(O[C@@H]4O[C@H](CO)[C@@H](O)[C@H](O)[C@H]4O)cccc31)c1cccc(O[C@@H]3O[C@H](CO)[C@@H](O)[C@H](O)[C@H]3O)c1C2=O [Sennoside A] | × | < 1e-06 | < 1e-07 | 1440 | 131 ± 8.86 (≈ 152 µM) | 
20 | C[C@@H]1O[C@@H](O[C@@H]2[C@@H](O)[C@H](OCCc3ccc(O)c(O)c3)O[C@H](CO)[C@H]2OC(=O)/C=C/c2ccc(O)c(O)c2)[C@H](O)[C@H](O)[C@H]1O [Verbascoside] | × | 39.9 | 0.00729 | 183 | 79.6 ± 0.99 (≈ 127 µM) | 
21 | Ivermectin | × |  |  |  |  | CC50 (CRFK cells): 1.81 ± 0.06 µg/mL
